Assay results published in patent publication US20260285857A1, “BICYCLIC AND HETEROCYCLIC AMIDE COMPOUNDS” (priority 2024, published 2026).

Test system: immunoglobulin light chain protein WIL-FL T46L
Test: Differential scanning fluorimetry (thermal shift) assay
Format: binding
Conditions: temperature shift [Tm]compound-[Tm]vehicle, recombinant WIL-FL T46L

Row | Structure (SMILES) | DSF (Table B) | DSF (Table A)
1 | Cc1cc(N2CC[C@](C)(c3cccc(F)c3)C2)cn2nc(C34CC(CO3)C4N3CC4(CC4)NC3=O)nc12 (stereo partly drawn) [Compound 507, 6-(1-(6-((R)-3-(3-fluorophenyl)-3-methylpyrrolidin-1-yl)-8-methyl-[1,2,4]triazolo[1,5-a]pyridin-2-yl)-2-oxabicyclo[2.1.1]hexan-5-yl)-4,6-diazaspiro[2.4]heptan-5-one] | ***** (>2.5° C.=*****) | 
2 | Cc1cc(N2CC[C@](C)(c3ccccc3)C2)cn2nc(C34CC(CO3)C4c3nc(NS(=O)(=O)CC(C)(C)C(=O)O)n[nH]3)nc12 (some centres unmarked) [Compound 564] | ***** (>2.5° C.=*****) | 
3 | Cc1cc(N2CC[C@](C)(c3ccccc3)C2)cn2nc(C34CC(Cn5ncnc5C)(CO3)C4)nc12 [Compound 449] | ***** (>2.5° C.=*****) | 
4 | CC(=O)N[C@@]12CO[C@@](c3nc4c(C)cc(N5CC[C@](C)(c6ccccc6)C5)cn4n3)(C1)[C@@H]2CO [Compound 544, N-((1S,4S,5S)-5-(hydroxymethyl)-1-(8-methyl-6-((R)-3-methyl-3-phenylpyrrolidin-1-yl)-[1,2,4]triazolo[1,5-a]pyridin-2-yl)-2-oxabicyclo[2.1.1]hexan-4-yl)acetamide] | ***** (>2.5° C.=*****) | 
5 | Cc1cccc(C2CCC23CN(c2cc(C)c4nc(C(=O)N5CC[C@@]6(CCN(c7cccc(C(=O)O)n7)C6)C5)nn4c2)C3)c1 (stereo partly drawn) [Compound 17, 6-((5R)-7-(8-methyl-6-(5-(m-tolyl)-2-azaspiro[3.3]heptan-2-yl)-[1,2,4]triazolo[1,5-a]pyridine-2-carbonyl)-2,7-diazaspiro[4.4]nonan-2-yl)picolinic acid] |  | ***** (>2.5° C.=*****)
6 | Cc1nc(N2CC3(CC(NC(=O)c4nc5c(C)cc(N6CC[C@](C)(c7ccccc7)C6)cn5n4)C3)C2)ccc1C(=O)O [Compound 663] | ***** (>2.5° C.=*****) | 
7 | Cc1ccc([C@@]2(C)CCN(c3cc(C)c4nc(C(=O)N5C[C@@H]6CN(c7cccc(C(=O)O)n7)C[C@@H]6C5)nn4c3)C2)cc1 [Compound 414] |  | ***** (>2.5° C.=*****)
8 | Cc1cc(N2CC[C@](C)(c3ccccc3)C2)cn2nc(C34CC(C(=O)Nc5ccnc(C(=O)O)c5)(CO3)C4)nc12 [Compound 456] | ***** (>2.5° C.=*****) | 
9 | Cc1cc(N2CC[C@](C)(c3ccccc3)C2)cn2nc(C(=O)NC3CC4(C3)CN(C(=O)C35CC(C(=O)O)(C3)C5)C4)nc12 [Compound 681] | ***** (>2.5° C.=*****) | 
10 | Cc1cc(N2CC[C@](C)(c3ccccc3)C2)cn2nc(C(=O)N3CC4C3CCCN4c3cccc(C(=O)O)n3)nc12 (some centres unmarked) [Compound 247] |  | ***** (>2.5° C.=*****)
11 | Cc1cc(N2CC3(CC[C@@]3(C)c3ccccc3)C2)cn2nc(C(=O)N3CC[C@@]4(CCN(c5cccc(C(=O)O)n5)C4)C3)nc12 [Compound 743, 6-[(5R)-2-[8-methyl-6-[(7S)-7-methyl-7-phenyl-2-azaspiro[3.3]heptan-2-yl]-[1,2,4]triazolo[1,5-a]pyridine-2-carbonyl]-2,7-diazaspiro[4.4]nonan-7-yl]pyridine-2-carboxylic acid] | ***** (>2.5° C.=*****) | 
12 | Cc1nnc(C2C3COC2(c2nc4c(C)cc(N5CC[C@](C)(c6ccccc6)C5)cn4n2)C3)o1 (some centres unmarked) [Compound 75] |  | ***** (>2.5° C.=*****)
13 | Cc1cc(N2CC[C@](C)(c3ccccc3)C2)cn2nc(C(=O)N3C[C@@H]4CN(c5cccc(C(=O)O)n5)C[C@H]4C3)nc12 [Compound 644] | ***** (>2.5° C.=*****) | 
14 | Cc1cc(N2CC[C@](C)(c3ccccc3)C2)cn2nc(C(=O)N3Cc4nc(-c5cccc(C(=O)O)n5)oc4C3)nc12 [Compound 250] |  | ***** (>2.5° C.=*****)
15 | Cc1cc(N2CC[C@](C)(c3ccccc3)C2)cn2nc(C34CC(C(=O)O)(CO3)C4C(=O)O)nc12 (stereo partly drawn) [Compound 537, 1-(8-methyl-6-((R)-3-methyl-3-phenylpyrrolidin-1-yl)-[1,2,4]triazolo[1,5-a]pyridin-2-yl)-2-oxabicyclo[2.1.1]hexane-4,5-dicarboxylic acid] | **** (>1.5-2.5° C.=****) | 
16 | Cc1cc(N2CC[C@](C)(c3ccccc3)C2)cn2nc(C(=O)NC3COC4(CCOC4)C3)nc12 (some centres unmarked) [Compound 145] |  | ***** (>2.5° C.=*****)

Row | Structure (SMILES) | DSF (Table B) | DSF (Table A)
17 | Cc1cc(OC[C@H](C)c2ccccc2)cn2nc(C(=O)N[C@H]3[C@H]4CN[C@@H]3C4)nc12 [Compound 322] |  | ***** (>2.5° C.=*****)
18 | Cc1cc(N2CC[C@](C)(c3ccccc3)C2)cn2nc(C34CC(CO)(CO3)C4C(=O)NCC(C)(C)C(=O)O)nc12 (stereo partly drawn) [Compound 569, 3-[[4-(hydroxymethyl)-1-[8-methyl-6-[(3R)-3-methyl-3-phenyl-pyrrolidin-1-yl]-[1,2,4]triazolo[1,5-a]pyridin-2-yl]-2-oxabicyclo[2.1.1]hexane-5-carbonyl]amino]-2,2-dimethyl-propanoic acid] | **** (>1.5-2.5° C.=****) | 
19 | Cc1nsc(C2(C)CCN(c3cc(C)c4nc(C(=O)N5C[C@@H]6CN(c7cccc(C(=O)O)n7)C[C@@H]6C5)nn4c3)C2)n1 (some centres unmarked) [Compound 299] |  | *** (>1-1.5° C.=***)
20 | COC(=O)C12CCC(NC(=O)c3nc4c(C)cc(N5CC[C@](C)(c6ccccc6)C5)cn4n3)(C1)C2 [Compound 175] |  | ***** (>2.5° C.=*****)
21 | Cc1cc(N2CC[C@](C)(c3ccccc3)C2)cn2nc(C(=O)NC3CCS(=N)(=O)C3)nc12 (some centres unmarked) [Compound 147] |  | ***** (>2.5° C.=*****)
22 | Cc1cc(N2CC[C@](C)(c3ccccc3)C2)cn2nc(C34CC(NC(=O)C5CC(C(=O)O)C5)(CO3)C4)nc12 (some centres unmarked) [Compound 468] | ***** (>2.5° C.=*****) | 
23 | Cc1cc(N2CC[C@](C)(c3ccccc3)C2)cn2nc(C34CC(CO3)C4c3nc(NS(=O)(=O)[C@H]4CC[C@H](C(=O)O)CC4)n[nH]3)nc12 (some centres unmarked) [Compound 562] | ***** (>2.5° C.=*****) | 
24 | CC(C)(O)c1cc(N2CC[C@](C)(c3ccccc3)C2)cn2nc(C(=O)NC3CCN(c4cccc(C(=O)O)n4)CC3)nc12 [Compound 340] |  | ***** (>2.5° C.=*****)
25 | CCC1(c2ccccc2)CN(c2cc(C)c3nc(C(=O)NC)nn3c2)C1 [Compound 33, 6-(3-ethyl-3-phenyl-azetidin-1-yl)-N, 8-dimethyl-[1,2,4]triazolo[1,5-a]pyridine-2-carboxamide] |  | ***** (>2.5° C.=*****)
26 | Cc1cc(OC[C@H](C)c2ccccc2)cn2nc(C34CC(N)(CO3)C4)nc12 [Compound 61] |  | **** (>1.5-2.5° C.=****)
27 | CCc1cc(N2CC[C@](C)(c3ccccc3)C2)cn2nc(C(=O)NC)nc12 [Compound 339] |  | ***** (>2.5° C.=*****)
28 | Cc1cc(N2CC[C@](C)(c3ccccc3)C2)cn2nc(C34CCC(N)(CO3)C4)nc12 (some centres unmarked) [Compound 66] |  | ***** (>2.5° C.=*****)
29 | Cc1cc(N2CC[C@](C)(c3ccccc3)C2)cn2nc(C(=O)NC3CC4(C3)CN(C(=O)C3CC(C)(C(=O)O)C3)C4)nc12 (some centres unmarked) [Compound 680] | ***** (>2.5° C.=*****) | 
30 | Cc1cc(N2CCC(C)(c3ccccc3O)C2)cn2nc(C(=O)N3CC[C@@]4(CCN(c5cccc(C(=O)O)n5)C4)C3)nc12 (some centres unmarked) [Compound 410] |  | *** (>1-1.5° C.=***)
31 | Cc1cc(N2CC[C@](C)(c3ccccc3)C2)cn2nc(C(=O)NC3CCN(CC(=O)O)C3)nc12 (some centres unmarked) [Compound 192] |  | ***** (>2.5° C.=*****)
32 | C[C@]1(c2ccccc2)CCN(c2cc(CO)c3nc(C(=O)N4CCC5(CCN(c6cccc(C(=O)O)n6)C5)C4)nn3c2)C1 (some centres unmarked) [Compound 343] |  | ***** (>2.5° C.=*****)
